From patent US6573293B2, “Pyrrole substituted 2-indolinone protein kinase inhibitors” (Sugen, Inc., priority 2000, dated 2003) come the findings set out here.

Structures are written as SMILES.

One assay deals with T1, GST-Flk1 (Mus musculus, UniProt P35918).
T1 construct: GST-Flk1cd purified from sf9 recombinant baculovirus transformation; host or cells: Sf9 (baculovirus)
Kind of assay: GST-FLK-1 bioassay (bio flkGST). In kind it is biochemical.

A further assay deals with T2, PDGFR-β (Homo sapiens, UniProt P09619).
T2 construct: host or cells: NIH 3T3
T2 sequence (P09619 33-1106): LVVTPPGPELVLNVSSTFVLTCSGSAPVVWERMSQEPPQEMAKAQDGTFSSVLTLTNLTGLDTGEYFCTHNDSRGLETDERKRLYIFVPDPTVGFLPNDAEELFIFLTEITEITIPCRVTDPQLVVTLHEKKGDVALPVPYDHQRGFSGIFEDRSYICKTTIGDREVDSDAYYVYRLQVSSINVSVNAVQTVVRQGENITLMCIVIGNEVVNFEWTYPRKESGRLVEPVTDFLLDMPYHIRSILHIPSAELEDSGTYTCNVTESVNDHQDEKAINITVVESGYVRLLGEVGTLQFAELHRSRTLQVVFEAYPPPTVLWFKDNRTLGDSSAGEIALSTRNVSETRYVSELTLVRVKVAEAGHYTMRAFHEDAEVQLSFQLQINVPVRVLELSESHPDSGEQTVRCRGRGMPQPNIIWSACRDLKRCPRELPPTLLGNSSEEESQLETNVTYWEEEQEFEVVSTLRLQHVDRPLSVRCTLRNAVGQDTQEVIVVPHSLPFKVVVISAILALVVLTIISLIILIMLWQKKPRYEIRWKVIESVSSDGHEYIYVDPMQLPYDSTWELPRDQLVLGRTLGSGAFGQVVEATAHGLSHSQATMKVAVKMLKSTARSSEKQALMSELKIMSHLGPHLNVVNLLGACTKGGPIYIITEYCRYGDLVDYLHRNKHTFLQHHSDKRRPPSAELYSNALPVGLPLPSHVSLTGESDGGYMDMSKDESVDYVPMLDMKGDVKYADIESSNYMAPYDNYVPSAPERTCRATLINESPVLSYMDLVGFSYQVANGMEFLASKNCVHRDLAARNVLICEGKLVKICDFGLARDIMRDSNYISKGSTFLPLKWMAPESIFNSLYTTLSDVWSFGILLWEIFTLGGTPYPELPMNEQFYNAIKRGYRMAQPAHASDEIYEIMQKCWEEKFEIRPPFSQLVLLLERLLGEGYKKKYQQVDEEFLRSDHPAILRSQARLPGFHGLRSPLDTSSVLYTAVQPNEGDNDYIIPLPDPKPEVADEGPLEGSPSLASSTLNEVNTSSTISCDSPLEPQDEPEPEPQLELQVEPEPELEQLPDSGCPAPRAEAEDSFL
Nature of the assay: PDGFR bioassay (bio PDGF). In kind it is biochemical.

Assay [1] deals with T3, EGFR (Homo sapiens, UniProt P00533).
T3 construct: A431 cell lysate (SUGEN, Inc.); host or cells: A431
T3 sequence (P00533 25-1210): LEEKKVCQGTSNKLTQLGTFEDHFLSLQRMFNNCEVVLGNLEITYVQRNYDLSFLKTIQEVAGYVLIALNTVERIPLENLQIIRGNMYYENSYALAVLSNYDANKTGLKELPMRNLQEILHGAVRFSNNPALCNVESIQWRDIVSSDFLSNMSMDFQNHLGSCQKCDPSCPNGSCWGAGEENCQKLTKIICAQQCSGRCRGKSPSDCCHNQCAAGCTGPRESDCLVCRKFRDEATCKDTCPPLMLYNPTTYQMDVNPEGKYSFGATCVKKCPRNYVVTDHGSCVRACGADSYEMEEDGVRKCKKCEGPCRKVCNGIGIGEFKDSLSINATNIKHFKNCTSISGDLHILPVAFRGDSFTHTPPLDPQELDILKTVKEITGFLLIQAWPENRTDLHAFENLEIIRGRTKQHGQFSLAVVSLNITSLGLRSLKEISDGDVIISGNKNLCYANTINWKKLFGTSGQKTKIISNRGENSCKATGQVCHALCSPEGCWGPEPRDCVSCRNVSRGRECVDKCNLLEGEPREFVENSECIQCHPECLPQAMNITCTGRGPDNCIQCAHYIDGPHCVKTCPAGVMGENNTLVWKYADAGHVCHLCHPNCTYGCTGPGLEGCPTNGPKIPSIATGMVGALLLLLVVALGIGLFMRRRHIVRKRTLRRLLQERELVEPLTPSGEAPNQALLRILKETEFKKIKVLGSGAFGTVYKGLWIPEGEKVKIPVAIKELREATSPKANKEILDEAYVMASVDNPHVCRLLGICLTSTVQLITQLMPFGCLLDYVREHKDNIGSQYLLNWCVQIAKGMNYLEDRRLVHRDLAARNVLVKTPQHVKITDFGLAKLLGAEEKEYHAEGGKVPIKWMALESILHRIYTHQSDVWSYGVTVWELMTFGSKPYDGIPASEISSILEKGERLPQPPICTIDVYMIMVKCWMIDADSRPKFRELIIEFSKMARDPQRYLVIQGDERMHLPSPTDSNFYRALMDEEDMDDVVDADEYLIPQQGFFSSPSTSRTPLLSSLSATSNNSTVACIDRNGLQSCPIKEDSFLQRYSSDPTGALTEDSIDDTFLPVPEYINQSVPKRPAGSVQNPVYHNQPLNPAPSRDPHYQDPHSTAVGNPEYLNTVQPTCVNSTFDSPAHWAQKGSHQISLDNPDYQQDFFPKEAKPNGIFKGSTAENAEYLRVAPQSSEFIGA
Nature of the assay: EGFR bioassay (bio EGF). In kind it is biochemical.
Description: This assay is used to the in vitro kinase activity of FGF1-R in an ELISA assay.
1. Corning 96-well Elisa plates.
2. SUMO1 monoclonal anti-EGFR antibody (SUGEN, Inc.).
5. Blocking Buffer: for 100 ml, mix 5.0 g Carnation Instant Non-fat Milk® with 100 ml of PBS.
6. A431 cell lysate (SUGEN, Inc.).
9. […] This reagent should be made up immediately prior to use and kept on ice.
11. […] Prepare just prior to use, keep on ice.
12. NUNC 96-well V bottom polypropylene plates.
14. Rabbit polyclonal anti-phosphotyrosine serum (SUGEN, Inc.).
15. Goat anti-rabbit IgG peroxidase conjugate (Biosource Cat. No. ALI0404).
17. 30% Hydrogen peroxide.
1. Coat Corning 96 well ELISA plates with 0.5 μg SUMO1 in 100 μl PBS per well, store overnight at 4° C.
2. Remove unbound SUMO1 from wells by inverting plate to remove liquid. Wash 1×with dH2O. Pat the plate on a paper towel to remove excess liquid.
3. Add 150 μl of Blocking Buffer to each well. Incubate, with shaking, for 30 min. at room temperature.
4. Wash plate 3×with deionized water, then once with TBST. Pat plate on a paper towel to remove excess liquid and bubbles.
5. Dilute lysate in PBS (7 μg lysate/100 μl PBS).
6. Add 100 μl of diluted lysate to each well. Shake at room temperature for 1 hr.
7. Wash plates as in 4, above.
8. Add 120 μl TBS to ELISA plate containing captured EGFR.
10. Add 13.5 μl diluted test compound to ELISA plate. To control wells, add 13.5 μl TBS in 10% DMSO.
11. Incubate, with shaking, for 30 minutes at room temperature.
12. Add 15 μl phosphorylation mix to all wells except negative control well. Final well volume should be approximately 150 μl with 3 μM ATP/5 mM MnCl2 final concentration in each well. Incubate with shaking for 5 minutes.
13. Stop reaction by adding 16.5 μl of EDTA solution while shaking. Shake for additional 1 min.
14. Wash 4×with deionized water, 2×with TBST.
15. Add 100 μl anti-phosphotyrosine (1:3000 dilution in TBST) per well. Incubate, with shaking, for 30-45 min. at room temperature.
17. […] Incubate with shaking for 30 min. at room temperature.
19. Add 100 μl of ABTS/H2O2 solution to each well.
20. Incubate 5 to 10 minutes with shaking. Remove any bubbles.
21. If necessary, stop reaction by adding 100 μl 0.2 M HCl per well.

Assay [2] concerns the target T3, EGFR. Nature of the assay: cell EGF assay. It counts as cell-based. As for the experimental part: Several of the assays described herein are performed in an ELISA (Enzyme-Linked Immunosorbent Sandwich Assay) format (Voller, et al., 1980, “Enzyme-Linked Immunosorbent Assay,” Manual of Clinical Immunology, 2d ed., Rose and Friedman, Am. Soc. Of Microbiology, Washington, D.C., pp. 359-371). The general procedure is as follows: a compound is introduced to cells expressing the test kinase, either naturally or recombinantly, for a selected period of time after which, if the test kinase is a receptor, a ligand known to activate the receptor is added. The cells are lysed and the lysate is transferred to the wells of an ELISA plate previously coated with a specific antibody recognizing the substrate of the enzymatic phosphorylation reaction. Non-substrate components of the cell lysate are washed away and the amount of phosphorylation on the substrate is detected with an antibody specifically recognizing phosphotyrosine compared with control cells that were not contacted with a test compound.

The target of the next assay is T4, HER-2 kinase (Homo sapiens, UniProt P04626).
T4 construct: Use EGFr/HER-2 chimera/3T3-C7 cell line for this assay; It is expressed in mouse NIH 3T3 clone C7 cells; P00533 (Epidermal growth factor receptor)
T4 sequence (P04626 720-987 limits assumed): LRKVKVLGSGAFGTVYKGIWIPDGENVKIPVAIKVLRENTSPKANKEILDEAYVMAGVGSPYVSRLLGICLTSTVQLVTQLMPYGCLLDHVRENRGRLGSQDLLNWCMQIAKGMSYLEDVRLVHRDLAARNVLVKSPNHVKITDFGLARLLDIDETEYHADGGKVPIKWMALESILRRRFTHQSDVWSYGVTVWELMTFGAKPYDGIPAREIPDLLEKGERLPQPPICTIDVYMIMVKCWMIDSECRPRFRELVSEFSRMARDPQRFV
Kind of assay: Cellular HER-2 kinase assay. It counts as cell-based. The following applies: read-out: Her2 Kinase IC50.

A further assay deals with GST-FGFR1 (Homo sapiens, UniProt P11362). Kind of assay: FGFR1 bioassay (bio PGFR1). In kind it is biochemical.
GST-FGFR1, sequence (P11362 22-822): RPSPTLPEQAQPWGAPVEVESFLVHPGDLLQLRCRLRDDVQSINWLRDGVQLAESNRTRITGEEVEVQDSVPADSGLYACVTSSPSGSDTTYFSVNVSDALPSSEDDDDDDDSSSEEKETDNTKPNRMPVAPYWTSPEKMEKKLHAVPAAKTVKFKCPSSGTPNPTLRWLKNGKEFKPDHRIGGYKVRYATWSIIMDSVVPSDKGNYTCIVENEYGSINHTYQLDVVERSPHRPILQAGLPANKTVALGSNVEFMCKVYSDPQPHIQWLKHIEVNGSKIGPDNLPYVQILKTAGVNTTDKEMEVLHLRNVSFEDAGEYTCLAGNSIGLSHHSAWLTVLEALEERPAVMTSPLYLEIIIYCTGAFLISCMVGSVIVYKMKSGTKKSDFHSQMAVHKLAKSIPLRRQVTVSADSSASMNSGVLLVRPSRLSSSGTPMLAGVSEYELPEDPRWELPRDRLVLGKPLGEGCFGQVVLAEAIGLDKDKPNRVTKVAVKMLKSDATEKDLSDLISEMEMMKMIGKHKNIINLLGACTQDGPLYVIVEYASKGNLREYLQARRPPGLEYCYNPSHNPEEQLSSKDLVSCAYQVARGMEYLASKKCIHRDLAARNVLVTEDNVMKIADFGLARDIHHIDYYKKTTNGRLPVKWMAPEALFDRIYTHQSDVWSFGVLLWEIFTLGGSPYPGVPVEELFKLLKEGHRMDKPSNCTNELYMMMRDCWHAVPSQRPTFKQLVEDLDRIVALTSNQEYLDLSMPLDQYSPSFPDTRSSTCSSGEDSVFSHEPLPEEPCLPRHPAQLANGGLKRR

T1 sequence (P35918 784-1345 limits assumed): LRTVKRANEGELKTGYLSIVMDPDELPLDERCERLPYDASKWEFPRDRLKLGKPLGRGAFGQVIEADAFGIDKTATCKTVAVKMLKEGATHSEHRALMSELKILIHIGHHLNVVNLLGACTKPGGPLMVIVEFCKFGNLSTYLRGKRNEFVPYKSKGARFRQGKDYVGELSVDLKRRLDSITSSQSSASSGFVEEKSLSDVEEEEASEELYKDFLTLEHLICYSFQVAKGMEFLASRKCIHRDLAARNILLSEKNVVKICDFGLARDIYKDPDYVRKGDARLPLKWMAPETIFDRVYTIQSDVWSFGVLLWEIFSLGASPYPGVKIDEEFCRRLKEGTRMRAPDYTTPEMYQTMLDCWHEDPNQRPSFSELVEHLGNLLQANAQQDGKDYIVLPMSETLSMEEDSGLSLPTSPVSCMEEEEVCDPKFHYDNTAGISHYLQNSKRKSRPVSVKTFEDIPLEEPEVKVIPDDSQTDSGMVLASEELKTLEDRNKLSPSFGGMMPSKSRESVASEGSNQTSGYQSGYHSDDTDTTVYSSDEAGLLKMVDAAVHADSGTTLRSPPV
Description for GST-FGFR1: This assay is used to measure the in vitro kinase activity of FGF1-R in an ELISA assay.
Poly(Glu-Tyr) (Sigma Catalog #PO275).
50 mM Hepes Buffer Solution.
Blocking Buffer (5% BSA/PBS).
Purified GST-FGFR1 (SUGEN, Inc.)
Mix 500 μl 1M Hepes (GIBCO), 20 μl 5% BSA/PBS, 10 μl 100 mM sodium orthovanadate and 50 μl 5M NaCl.
Add 500 μL TWEEN to 1 liter TBS.
Rabbit polyclonal anti-phosphotyrosine serum (SUGEN, Inc.).
Goat anti-rabbit IgG peroxidase conjugate (Biosource, Catalog #ALI0404).
Coat Costar 96 well ELISA plates with 1 μg per well Poly(Glu,Tyr) in 100 μl PBS. Store overnight at 4° C.
Wash coated plates once with PBS.
Add 150 μL of 5% BSA/PBS Blocking Buffer to each well. Incubate, with shaking, for 1 hr.room temperature.
Wash plate 2×with PBS, then once with 50 mM Hepes. Pat plates on a paper towel to remove excess liquid and bubbles.
Add 25 μL of 0.4 mM test compound in 4% DMSO or 4% DMSO alone (controls) to plate.
Dilute purified GST-FGFR1 in Kinase Dilution Buffer (5 ng kinase/50 ul KDB/well).
Add 50 μL of diluted kinase to each well.
This is a fast kinase reaction and must be stopped with 25 μL of 0.5M EDTA in a manner similar to the addition of ATP.
Wash plate 4×with fresh TBST.
Make up Antibody Dilution Buffer: Per 50 ml: Mix 5 ml of 5% BSA, 250 μl of 5% milk and 50 μl of 100 mM sodium vanadate, bring to final volume with 0.05% TBST.
Add 100 μl per well of anti-phosphotyrosine (1:10000 dilution in ADB). Incubate, with shaking for 1 hr. at room temperature.
Incubate, with shaking for 1 hr. at room temperature.
Wash as in step 10 and then with PBS to remove bubbles and excess TWEEN.
Add 100 μl of ABTS/H2O2 solution to each well.
17. […] Remove any bubbles.
Description for HER-2 kinase: Cellular HER-2 Kinase Assay
This assay is used to measure HER-2 kinase activity in whole cells in an ELISA format.
Fetal Bovine Serum (FBS, GIBCO Catalog #16000-044), heat inactivated in a water bath for 30 min. at 56° C.
Corning 96-well ELISA Plates.
NUNC 96-well V bottom polypropylene plates.
SUMO 1: monoclonal anti-EGFR antibody (SUGEN, Inc.).
Blocking Buffer: 5% Carnation Instant Milk® in PBS.
Suspend powder in 100 uL of 10 mM HCl. Add 100 uL 10 mM NaOH. Add 800 uL PBS and transfer to an Eppendorf tube, store at −20° C. until ready to use.
Na3VO4. […] Adjust pH to 10. Boil in microwave for one minute (solution becomes clear). Cool to room temperature. Adjust pH to 10. Repeat heating/cooling cycle until pH remains at 10.
Rabbit polyclonal antiserum specific for phosphotyrosine (anti-Ptyr antibody, SUGEN, Inc.).
Affinity purified antiserum, goat anti-rabbit IgG antibody, peroxidase conjugate (Biosource Cat #ALI0404).
30% Hydrogen peroxide solution.
Coat Corning 96 well ELISA plates with SUMO1 at 1.0 ug per well in PBS, 100 ul final volume/well. Store overnight at 4° C.
On day of use, remove coating buffer and wash plate 3 times with dH2O and once with TBST buffer. All washes in this assay should be done in this manner, unless otherwise specified.
Add 100 ul of Blocking Buffer to each well. Incubate plate, with shaking, for 30 min. at room temperature. Just prior to use, wash plate.
Use EGFr/HER-2 chimera/3T3-C7 cell line for this assay.
Choose dishes having 80-90% confluence. Collect cells by trypsinization and centrifuge at 1000 rpm at room temperature for 5 min.
Resuspend cells in starve medium and count with trypan blue. Viability above 90% is required. Seed cells in starve medium at a density of 2,500 cells per well, 90 ul per well, in a 96 well microtiter plate. Incubate seeded cells overnight at 37° under 5% CO2.
Start the assay two days after seeding.
Test compounds are dissolved in 4% DMSO. Samples are then further diluted directly on plates with starve-DMEM. Typically, this dilution will be 1:10 or greater.
Incubate under 5% CO2 at 37° C. for 2 hours.
Prepare fresh HNTG* sufficient for 100 ul per well; place on ice.
After 2 hour incubation with test compound, add prepared EGF ligand to cells, 50 ul per well, for a final concentration of 50 nM. Positive control wells receive the same amount of EGF. […] Incubate at 37° C. for 10 min.
Remove test compound, EGF, and DMEM. Wash cells once with PBS.
Transfer HNTG* to cells, 100 ul per well. Place on ice for 5 minutes. Meanwhile, remove blocking buffer from ELISA plate and wash.
Scrape cells from plate with a micropipettor and homogenize cell material by repeatedly aspirating and dispensing the HNTG* lysis buffer. Transfer lysate to a coated, blocked, washed ELISA plate. Or, use a Costar transfer cartridge to transfer lysate to the plate.
Incubate, with shaking, at room temperature for 1 hr.
Remove lysate, wash. Transfer freshly diluted anti-Ptyr antibody (1:3000 in TBST) to ELISA plate, 100 ul per well.
Incubate, with shaking, at room temperature, for 30 min.
Remove anti-Ptyr antibody, wash. Transfer freshly diluted BIOSOURCE antibody to ELISA plate (1:8000 in TBST, 100 ul per well).
Incubate, with shaking, at room temperature for 30 min.
Remove BIOSOURCE antibody, wash. Transfer freshly prepared ABTS/H2O2 solution to ELISA plate, 100 ul per well.
Stop reaction with the addition of 100 ul of 0.2M HCl per well.

As a reminder, the IC50 is the concentration that inhibits the measured activity by half. Regarding `CCN(CC)CCCNC(=O)c1c(C)[nH]c(/C=C2\C(=O)Nc3ccc(-c4ccccc4)cc32)c1C` [Example 67, 2,4-Dimethyl-5-(2-oxo-5-phenyl-1,2-dihydroindol-3-ylidenemethyl)-1H-pyrrole-3-carboxylic acid (3-diethylaminopropyl)amide], the half-inhibitory concentration (IC50) on GST-Flk1 is 0.39 µM; against PDGFR-β, 24.8 µM; against EGFR [1], 31.4 µM; at EGFR [2], 19.8 µM; on HER-2 kinase it was 2.56 µM.
In the case of `CC(C)c1[nH]c(/C=C2\C(=O)Nc3ccc(Br)cc32)c(-c2ccccc2)c1C(=O)NCCCN1CCCC1` [Example 38, 5-(5-Bromo-2-oxo-1,2-dihydroindol-3-ylidenemethyl)-2-isopropyl-4-phenyl-1H-pyrrole-3-carboxylic acid (3-pyrrolidin-1-ylpropyl)amide], the IC50 is 4.17 µM on GST-Flk1; 3.06 µM at PDGFR-β; 6.04 µM against EGFR [1]; 8.97 µM on EGFR [2]; 2.16 µM on HER-2 kinase.
As to `Cc1cc(C(=O)O)[nH]c1/C=C1\C(=O)Nc2ccc(Cl)cc21` [Example 5, 5-(5-Chloro-2-oxo-1,2-dihydroindol-3-ylidenemethyl)-4-methyl-1H-pyrrole-2-carboxylic acid], the IC50 is 8.3 µM against GST-Flk1; 16.1 µM against GST-FGFR1; above 100 µM at PDGFR-β; above 100 µM on EGFR [1]; above 100 µM against EGFR [2]; above 100 µM on HER-2 kinase.
As for `Cc1[nH]c(/C=C2\C(=O)Nc3ccc(Br)cc32)c(-c2ccccc2)c1C(=O)NCCN1CCCC1` [Example 42, 5-(5-Bromo-2-oxo-1,2-dihydroindol-3-ylidenemethyl)-2-methyl-4-phenyl-1H-pyrrole-3-carboxylic acid (2-pyrrolidin-1-yl-ethyl)amide], the IC50 at GST-Flk1 was found to be 0.1 µM; at PDGFR-β it was 0.12 µM; against EGFR [1], 12 µM; on EGFR [2], 74.6 µM; at HER-2 kinase, 20.4 µM.
`Cc1[nH]c(/C=C2\C(=O)Nc3cccc(CCO)c32)c(C)c1C(=O)N1CCN(C)CC1` [Example 85, 3-[3,5-Dimethyl-4-(4-methyl-piperazine-1-carbonyl)-1H-pyrrol-2-ylmethylene]-4-(2-hydroxy-ethyl)-1,3-dihydroindol-2-one]: the IC50 at GST-Flk1 is 0.2 µM; on GST-FGFR1, 0.8 µM; against PDGFR-β, 2.59 µM; at EGFR [1], above 100 µM; at HER-2 kinase, 3.76 µM.
For `Cc1[nH]c(/C=C2\C(=O)Nc3cc(-c4cccnc4)ccc32)c(C)c1C(=O)NCCN1CCCC1` [Example 64, 2,4-Dimethyl-5-(2-oxo-6-pyridin-3-yl-1,2-dihydroindol-3-ylidenemethyl)-1H-pyrrole-3-carboxylic acid (2-pyrrolidin-1-yl-ethyl)amide], the half-maximal inhibitory concentration (IC50) on GST-Flk1 is 0.55 µM; at PDGFR-β, below 0.78 µM; on EGFR [1], 30.5 µM; against EGFR [2], above 100 µM; on HER-2 kinase, above 100 µM.
`CCN(CC)CCNC(=O)c1ccc(/C=C2\C(=O)Nc3cc(-c4ccccc4)ccc32)[nH]1` [Example 9, 5-(2-Oxo-6-phenyl-1,2-dihydroindol-3-ylidenemethyl)-1H-pyrrole-2-carboxylic acid (2-diethylaminoethyl)amide]: the IC50 against GST-Flk1 is 0.96 µM; against PDGFR-β it was above 100 µM; on EGFR [1], above 100 µM; against EGFR [2] it was above 100 µM; at HER-2 kinase it was 16.4 µM.
`CC(C)c1[nH]c(/C=C2\C(=O)Nc3ccc(Br)cc32)c(C(C)C)c1C(=O)NCCCN1CCCC1` [Example 73, 5-(5-Bromo-2-oxo-1,2-dihydroindol-3-ylidenemethyl)-2,4-diisopropyl-1H-pyrrole-3-carboxylic acid (3-pyrrolidin-1-ylpropyl)amide]: the IC50 on GST-Flk1 is 5.95 µM; against PDGFR-β, 14.1 µM; against EGFR [1], above 100 µM; on EGFR [2], 39.5 µM; at HER-2 kinase, 8.59 µM.
In the case of `CCN(CC)CCNC(=O)c1c(C)[nH]c(/C=C2\C(=O)Nc3ccc(-c4ccccc4)cc32)c1C` [Example 56, 2,4-Dimethyl-5-(2-oxo-5-phenyl-1,2-dihydroindol-3-ylidenemethyl)-1H-pyrrole-3-carboxylic acid (2-diethylaminoethyl)amide], the 50% inhibitory concentration (IC50) was 2.32 µM on GST-Flk1; 3.19 µM at PDGFR-β; above 100 µM at EGFR [1]; 10 µM on EGFR [2]; 7.11 µM on HER-2 kinase.
For the compound `CCN(CC)CCCNC(=O)c1c(C(C)C)[nH]c(/C=C2\C(=O)Nc3ccc(Br)cc32)c1-c1ccccc1` [Example 37, 5-(5-Bromo-2-oxo-1,2-dihydroindol-3-ylidenemethyl)-2-isopropyl-4-phenyl-1H-pyrrole-3-carboxylic acid (3-diethylaminopropyl)amide], the IC50 was 0.22 µM at GST-Flk1; 3.06 µM on PDGFR-β; 10.8 µM at EGFR [1]; 9.84 µM against EGFR [2]; 1.4 µM on HER-2 kinase.
For the compound `COc1cccc(-c2ccc3c(c2)NC(=O)/C3=C\c2[nH]c(C)c(C(=O)NCCN(C)C)c2C)c1` [Example 55, 5-[6-(3-Methoxy-phenyl)-2-oxo-1,2-dihydroindol-3-ylidenemethyl]-2,4-dimethyl-1H-pyrrole-3-carboxylic acid (2-dimethylamino-ethyl)amide], the IC50 at GST-Flk1 worked out at 0.27 µM; against PDGFR-β, 0.53 µM; at EGFR [1] it was 6.03 µM; on EGFR [2], 36 µM; on HER-2 kinase, 77.8 µM.
As to `CCOC(=O)c1cc(C)c(/C=C2\C(=O)Nc3ccc(Cl)cc32)[nH]1` [Example 4, 5-(5-Chloro-2-oxo-1,2-dihydroindol-3-ylidenemethyl)-4-methyl-1H-pyrrole-2-carboxlyc acid ethyl ester], the half-inhibitory concentration (IC50) against GST-Flk1 is 3.57 µM; at GST-FGFR1 it was above 20 µM; against PDGFR-β it was above 100 µM; on EGFR [1] it was above 100 µM; on EGFR [2], above 100 µM; on HER-2 kinase it was above 100 µM.
On to `CCN(CC)CCN(C)C(=O)c1ccc(/C=C2\C(=O)Nc3cc(-c4ccccc4)ccc32)[nH]1` [Example 11, 5-(2-Oxo-6-phenyl-1,2-dihydroindol-3-ylidenemethyl)-1H-pyrrole-2-carboxylic acid (2-diethylaminoethyl)methylamide], for which the IC50 against GST-Flk1 was 9.77 µM; at PDGFR-β, above 100 µM; on EGFR [1], above 100 µM; on EGFR [2] it was above 100 µM; at HER-2 kinase, above 100 µM.
As for `Cc1[nH]c(/C=C2\C(=O)Nc3ccc(Br)cc32)c(-c2ccccc2)c1C(=O)NCCN(C)C` [Example 44, 5-(5-Bromo-2-oxo-1,2-dihydroindol-3-ylidenemethyl)-2-methyl-4-phenyl-1H-pyrrole-3-carboxylic acid (2-dimethylamino-ethyl)amide], the IC50 at GST-Flk1 is below 0.05 µM; at PDGFR-β it was 0.02 µM; against EGFR [1], 20.7 µM; against EGFR [2], 67.5 µM; on HER-2 kinase, 6.99 µM.
Regarding `CCN(CC)CCCNC(=O)c1cc(C)c(/C=C2\C(=O)Nc3ccc(Br)cc32)[nH]1` [Example 7, 5-(5-Bromo-2-oxo-1,2-dihydroindol-3-ylidenemethyl)-4-methyl-1H-pyrrole-2-carboxylic acid (3-diethylaminopropyl)amide], the IC50 was 7.74 µM on GST-Flk1; above 100 µM against PDGFR-β; 5.07 µM against EGFR [1]; 9.8 µM on EGFR [2]; 4.24 µM on HER-2 kinase.
